Where two headings read alike, the source gives them in different places.
Key:
hT2R54 [1] = target: T1, hT2R54 (Homo sapiens, UniProt P59534); assay type: cell-based
T1 construct: expressed in transfected cells; host or cells: HEK293 cells stably expressing large T antigen and G16gust44; Transfection was transient for imaging
T1 sequence (P59534 18-338): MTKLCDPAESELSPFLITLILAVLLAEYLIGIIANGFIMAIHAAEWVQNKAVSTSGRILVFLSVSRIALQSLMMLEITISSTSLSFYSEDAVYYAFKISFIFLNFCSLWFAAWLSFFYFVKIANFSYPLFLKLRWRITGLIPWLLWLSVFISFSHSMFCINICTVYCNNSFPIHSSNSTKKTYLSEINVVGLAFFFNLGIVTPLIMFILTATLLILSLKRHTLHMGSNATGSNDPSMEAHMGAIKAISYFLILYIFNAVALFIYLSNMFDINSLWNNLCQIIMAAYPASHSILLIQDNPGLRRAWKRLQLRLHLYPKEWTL
Protocol: (§1) More particularly, the present inventors transfected HEK293 cells with a particular hT2R together with a chimeric G protein (G16 gust 44) which comprises the […] G protein sequence modified by the replacement of carboxy-44 amino acid residues with those of gustducin, and recorded responses of these cells to specific bitter ligands by calcium imaging methods.
(§2) Activation of these receptors by ranitidine is measured in a cell-based assay detecting changes in intracellular calcium concentration. In brief, human embryonic kidney cells stably expressing the large […] and a chimeric G protein (G16gust44) are transiently transfected with the a plasmid containing a particular hT2R54 nucleic acid sequence either by Ca^2+ phosphate or lipid-based systems. Transiently transfected cells are seeded into 24 well culture plates, and functional expression allowed to proceed for a total of 48 hours. The cells are then incubated with a fluorescent dye specific for calcium (Fluo-4 or Fura-2; Molecular Probes) that provides a fast, simple and reliable fluorescence-based method for detecting changes in calcium concentration inside the cell. Addition of ranitidine to cells elicits a signaling cascade leading to the activation of PLC and a subsequent increase in intracellular calcium concentration. This increase in calcium concentration changes the fluorescence properties of the calcium dye inside the cells. These changes are monitored using fluorescence microscopy and a specific design software (Imaging Workbench, Axon).
(§3) Transiently transfected cells are seeded into 24 well culture plates, and functional expression allowed to proceed for a total of 48 hours. The cells are then incubated with a fluorescent dye specific for calcium (Fluo-4 or Fura-2; Molecular Probes) that provides a fast, simple and reliable fluorescence-based method for detecting changes in calcium concentration inside the cell. […] This increase in calcium concentration changes the fluorescence properties of the calcium dye inside the cells. These changes are monitored using fluorescence microscopy and specific design software (Imaging Workbench, Axon).
as §3, with “Activation of these receptors by denatonium benzoate is measured in” for “Transiently transfected cells are seeded into 24 well culture plates, and functional expression allowed to proceed for”, “cell-based assay detecting changes in intracellular calcium concentration. […]” for “total of 48 hours.”

hT2R54 [2] = target: T1, hT2R54; experiment: dose response, stable HEK-G16gust44 line, calcium dye, FLIPR or VIPR; assay type: cell-based; conditions: for dose response of hT2R54: stable HEK-G16gust44 line
Protocol: (§4) A HEK-G16gust44 line stably expressing high levels of hT2R8 or hT2R54 on its cell surface is used in high throughput screening assays. In this platform, the cells are seeded into 96 well or 384 well culture plates 18-24 hours before the assay. The cells are then incubated with the fluorescent calcium sensitive dye (Molecular Devices) and are stimulated and read in a standard fluorescence intensity plate reader (FLIPR or VIPR). Using this approach we have been able to further characterize the ranitidine effect on hT2R8 and hT2R54.
A HEK-G16gust44 cell line stably expressing high levels of hT2R54 on its cell surface is used in high throughput screening assays. In this platform, the cells are seeded into 96 well or 384 well culture plates 18-24 hours before the assay. The cells are then incubated with the fluorescent calcium sensitive dye (Molecular Devices) and are stimulated and read in a standard fluorescence intensity plate reader (FLIPR or VIPR). Using this approach we have been able to further characterize the acetaminophen effect on hT2R54.

[3] = taste detection threshold; assay type: in vivo, humans
mT2R5 = target: T2, mT2R5 (Mus musculus, UniProt Q9JKT4); conditions: Chandrashekar et al. 2000; cited from earlier work
T2 construct: host or cells: insect Sf9 cells
T2 sequence (Q9JKT4 1-300): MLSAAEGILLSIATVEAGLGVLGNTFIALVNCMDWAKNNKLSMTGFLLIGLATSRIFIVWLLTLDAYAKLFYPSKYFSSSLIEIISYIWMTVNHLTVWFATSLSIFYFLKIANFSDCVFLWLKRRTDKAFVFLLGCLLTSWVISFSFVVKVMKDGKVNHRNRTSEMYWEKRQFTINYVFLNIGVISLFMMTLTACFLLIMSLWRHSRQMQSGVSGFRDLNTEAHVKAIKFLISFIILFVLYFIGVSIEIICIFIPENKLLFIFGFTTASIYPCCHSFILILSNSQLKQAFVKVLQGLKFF

hT2R75 = target: T3, hT2R75 (Homo sapiens, UniProt P59540); assay type: cell-based
T3 construct: expressed in transfected cells; host or cells: HEK293 cells stably expressing large T antigen and G16gust44, transiently transfected
T3 sequence (P59540 1-309): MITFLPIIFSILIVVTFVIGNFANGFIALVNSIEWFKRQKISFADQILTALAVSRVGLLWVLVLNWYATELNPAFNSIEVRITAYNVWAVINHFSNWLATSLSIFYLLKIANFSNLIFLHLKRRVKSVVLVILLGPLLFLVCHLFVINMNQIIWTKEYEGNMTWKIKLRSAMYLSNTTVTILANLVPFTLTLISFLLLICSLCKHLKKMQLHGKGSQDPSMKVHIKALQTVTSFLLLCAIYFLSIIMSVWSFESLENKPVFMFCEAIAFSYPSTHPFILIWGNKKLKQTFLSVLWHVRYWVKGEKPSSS
Protocol: as §1, §2
as §3, with “Activation of these receptors by denatonium benzoate is measured in” for “Transiently transfected cells are seeded into 24 well culture plates, and functional expression allowed to proceed for”, “cell-based assay detecting changes in intracellular calcium concentration. […]” for “total of 48 hours.”
(§5) Activation of these receptors by strychnine is measured in a cell-based assay detecting changes in intracellular calcium concentration. […] The cells are then incubated with a fluorescent dye specific for calcium (Fluo-4 or Fura-2; Molecular Probes) that provides a fast, simple and reliable fluorescence-based method for detecting changes in calcium concentration inside the cell. […] This increase in calcium concentration changes the fluorescence properties of the calcium dye inside the cells. These changes are monitored using fluorescence microscopy and a specific design software (Imaging Workbench, Axon).

hT2R8 [4] = target: T4, hT2R8 (Homo sapiens, UniProt Q9NYW2); assay type: cell-based
T4 construct: expressed in transfected cells; host or cells: HEK293 cells stably expressing large T antigen and chimeric G protein G16gust44; Transfection was transient for imaging
T4 sequence (Q9NYW2 1-309): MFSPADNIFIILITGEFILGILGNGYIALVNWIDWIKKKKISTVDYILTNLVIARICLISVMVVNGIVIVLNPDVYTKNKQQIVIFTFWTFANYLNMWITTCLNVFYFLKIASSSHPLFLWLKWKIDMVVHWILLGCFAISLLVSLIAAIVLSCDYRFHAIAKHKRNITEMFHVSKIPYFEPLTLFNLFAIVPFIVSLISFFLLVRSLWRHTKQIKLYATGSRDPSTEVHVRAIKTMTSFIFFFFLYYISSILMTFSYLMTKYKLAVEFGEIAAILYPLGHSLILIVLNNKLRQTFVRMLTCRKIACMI
Protocol: as §1, §2
as §5, with “denatonium benzoate” for “strychnine”, “and” for “and a”
as §5

hT2R10 = target: T5, hT2R10 (Homo sapiens, UniProt Q9NYW0); assay type: cell-based; conditions: concentration not given
T5 construct: expressed in transfected cells; host or cells: HEK293 cells stably expressing large T antigen and G16gust44, transiently transfected
T5 sequence (Q9NYW0 1-307): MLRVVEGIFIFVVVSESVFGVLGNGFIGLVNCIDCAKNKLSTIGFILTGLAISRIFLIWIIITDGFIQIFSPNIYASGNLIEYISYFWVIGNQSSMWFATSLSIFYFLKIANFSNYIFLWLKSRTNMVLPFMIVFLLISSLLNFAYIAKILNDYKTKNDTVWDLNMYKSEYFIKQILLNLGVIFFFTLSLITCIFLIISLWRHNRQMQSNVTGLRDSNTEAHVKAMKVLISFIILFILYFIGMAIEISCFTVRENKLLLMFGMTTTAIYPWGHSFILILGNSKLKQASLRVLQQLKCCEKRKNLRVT
Protocol: as §1
as §5, with “denatonium benzoate” for “strychnine”, “and” for “and a”
Activation of these receptors by strychnine is measured in a cell-based assay detecting changes in intracellular calcium concentration. […] The cells are then incubated with a fluorescent dye specific for calcium (Fluo-4 or Fura-2; Molecular Probes) that provides a fast, simple and reliable fluorescence-based method for detecting changes in calcium concentration inside the cell. […]

hT2R13 = target: T6, hT2R13 (Homo sapiens, UniProt Q9NYV9); assay type: cell-based; conditions: concentration not given
T6 construct: expressed in transfected cells; host or cells: HEK293 cells stably expressing large T antigen and G16gust44, transiently transfected
T6 sequence (Q9NYV9 1-303): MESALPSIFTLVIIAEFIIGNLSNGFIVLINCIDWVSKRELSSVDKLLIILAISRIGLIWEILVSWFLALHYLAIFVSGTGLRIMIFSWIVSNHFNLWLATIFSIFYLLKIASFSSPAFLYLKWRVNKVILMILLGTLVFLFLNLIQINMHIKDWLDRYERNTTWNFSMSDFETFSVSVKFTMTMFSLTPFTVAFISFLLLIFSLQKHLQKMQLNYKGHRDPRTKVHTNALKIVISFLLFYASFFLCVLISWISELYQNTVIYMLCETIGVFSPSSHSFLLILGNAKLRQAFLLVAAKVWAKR
Protocol: as §1
as §2, with “receptors by denatonium benzoate is measured” for “receptors by ranitidine is measured”, “a particular hT2R nucleic acid” for “a particular hT2R54 nucleic acid”, “the cell. […] This increase” for “the cell. Addition of ranitidine to cells elicits a signaling cascade leading to the activation of PLC and a subsequent increase in intracellular calcium concentration. This increase”, “microscopy and specific design” for “microscopy and a specific design”

hT2R61 = target: T7, hT2R61 (Homo sapiens, UniProt P59537, H212R/W35S); assay type: cell-based; conditions: concentration not given
T7 construct: expressed in transfected cells; host or cells: HEK293 cells stably expressing large T antigen and G16gust44, transiently transfected
T7 sequence (P59537 1-309 W35S/H212R): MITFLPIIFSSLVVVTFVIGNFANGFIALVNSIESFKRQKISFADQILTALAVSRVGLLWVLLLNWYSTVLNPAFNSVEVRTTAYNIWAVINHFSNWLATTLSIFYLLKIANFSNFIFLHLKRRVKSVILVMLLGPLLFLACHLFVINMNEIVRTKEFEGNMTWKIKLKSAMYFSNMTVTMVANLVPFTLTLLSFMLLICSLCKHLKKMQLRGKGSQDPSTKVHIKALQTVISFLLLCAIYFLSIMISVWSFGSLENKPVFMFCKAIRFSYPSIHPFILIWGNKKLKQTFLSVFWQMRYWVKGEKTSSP
Protocol: as §1
as §2, with “receptors by denatonium benzoate is measured” for “receptors by ranitidine is measured”, “a particular hT2R nucleic acid” for “a particular hT2R54 nucleic acid”, “the cell. […] This increase” for “the cell. Addition of ranitidine to cells elicits a signaling cascade leading to the activation of PLC and a subsequent increase in intracellular calcium concentration. This increase”, “microscopy and specific design” for “microscopy and a specific design”

hT2R8 [5] = target: T4, hT2R8; experiment: dose response, stable HEK-G16gust44 line, calcium dye, FLIPR or VIPR; assay type: cell-based
Protocol: as §4
A HEK-G16gust44 line stably expressing high levels of hT2R8 […] cell surface is used in high throughput screening assays. In this platform, the cells are seeded into 96 well or 384 well culture plates 18-24 hours before the assay. The cells are then incubated with the fluorescent calcium sensitive dye (Molecular Devices) and are stimulated and read in a standard fluorescence intensity plate reader (FLIPR or VIPR).

hT2R4 = target: T8, hT2R4 (Homo sapiens, UniProt Q9NYW5); conditions: Chandrashekar et al. 2000; cited from earlier work
T8 sequence (Q9NYW5 1-299): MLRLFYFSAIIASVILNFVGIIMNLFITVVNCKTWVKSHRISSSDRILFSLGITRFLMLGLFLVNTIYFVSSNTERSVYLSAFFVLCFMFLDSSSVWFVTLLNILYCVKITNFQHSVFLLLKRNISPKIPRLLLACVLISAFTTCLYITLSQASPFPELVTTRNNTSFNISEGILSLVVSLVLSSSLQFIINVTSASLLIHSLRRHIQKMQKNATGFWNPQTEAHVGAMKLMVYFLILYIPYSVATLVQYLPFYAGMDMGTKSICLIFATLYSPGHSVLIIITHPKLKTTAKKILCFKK

CC(=O)Nc1ccc(O)cc1 [acetaminophen]
response of hT2R54 in calcium imaging (hT2R54 [1]; 10 μM): responded specifically | EC50 (hT2R54 [2]): 1830 nM | dose response of hT2R54 (hT2R54 [2]): typical dose-response relationship | taste detection threshold / bitter taste threshold for humans [3]: 1.25 µM

C[C@@H]1C[C@@H]([C@H](O)CC2CC(=O)NC(=O)C2)C(=O)[C@@H](C)C1 [cycloheximide]
gustducin activation by mT2R5 (mT2R5): occurs only in response to cycloheximide

CC[N+](CC)(CC(=O)Nc1c(C)cccc1C)Cc1ccccc1 [denatonium benzoate]
response of hT2R75 in calcium imaging (hT2R75; concentration not given): respond specifically | response of hT2R8 in calcium imaging (hT2R8 [4]; concentration not given): respond specifically | response of hT2R10 in calcium imaging (hT2R10): respond specifically | response of hT2R54 in calcium imaging (hT2R54 [1]; concentration not given): respond specifically | response of hT2R13 in calcium imaging (hT2R13): respond specifically | response of hT2R61 in calcium imaging (hT2R61): respond specifically | EC50 (hT2R8 [5]; dose response, FIG. 6): 450000 nM | dose response of hT2R8 (hT2R8 [5]; stable HEK-G16gust44 line): typical dose-response relationship | EC50 (hT2R54 [2]; dose response, FIG. 4, read-out: EC50, hT2R54): 380 nM | dose response of hT2R54 (hT2R54 [2]): typical dose-response relationship | taste detection threshold ([3]; in vivo): 24 mM | effective denatonium concentrations activating hT2R4 (hT2R4): 1.5 mM

CNC(=C[N+](=O)[O-])NCCSCc1ccc(CN(C)C)o1 [ranitidine]
taste detection threshold / bitter taste threshold for humans [3]: 78 µM

OCc1ccccc1O[C@@H]1O[C@H](CO)[C@@H](O)[C@H](O)[C@H]1O [salicin]
response of hT2R54 in calcium imaging (hT2R54 [1]; 10 μM): does not respond

OC[C@H]1O[C@@](CO)(O[C@H]2O[C@H](CO)[C@@H](O)[C@H](O)[C@H]2O)[C@@H](O)[C@@H]1O [sucrose]
response of hT2R75 in calcium imaging (hT2R75; 10 μM): did not respond | response of hT2R8 in calcium imaging (hT2R8 [4]; 10 μM): did not respond | response of hT2R54 in calcium imaging (hT2R54 [1]; 10 μM): did not respond
